Test results from ChEMBL document CHEMBL2074391, “Overlapping substrate specificities of cytochrome P450 3A and P-glycoprotein for a novel cysteine protease inhibitor” (Drug Metab Dispos, 1998).

Key:
ABCB1 (P-glycoprotein) [1] = biological target: T1, ABCB1 (P-glycoprotein) (Homo sapiens, UniProt P08183); assay: TP_TRANSPORTER: inhibition of photolabeling by Azidopine (Azidopine: 0.05 uM, K02: 10 uM) in membranes from CEM5k cells; type: functional, cell membranes, Membrane; settings: probe Azidopine (0.05 uM)
[2] = biological target: ATP-dependent translocase ABCB1 (Homo sapiens, UniProt P08183); assay: TP_TRANSPORTER: transepithelial transport (basal to apical) in MDR1-expressing MDCK cells; type: functional, cell-based; settings: dog
ABCB1 (P-glycoprotein) [3] = biological target: T1, ABCB1 (P-glycoprotein); assay: TP_TRANSPORTER: inhibition of photolabeling by LU-49888 (LU-49888: 0.1 uM, K02: 10 uM) in membranes from CEM5k cells; type: functional, cell membranes, Membrane; settings: probe LU-49888 (0.1 uM)

T1 sequence (P08183 whole entry): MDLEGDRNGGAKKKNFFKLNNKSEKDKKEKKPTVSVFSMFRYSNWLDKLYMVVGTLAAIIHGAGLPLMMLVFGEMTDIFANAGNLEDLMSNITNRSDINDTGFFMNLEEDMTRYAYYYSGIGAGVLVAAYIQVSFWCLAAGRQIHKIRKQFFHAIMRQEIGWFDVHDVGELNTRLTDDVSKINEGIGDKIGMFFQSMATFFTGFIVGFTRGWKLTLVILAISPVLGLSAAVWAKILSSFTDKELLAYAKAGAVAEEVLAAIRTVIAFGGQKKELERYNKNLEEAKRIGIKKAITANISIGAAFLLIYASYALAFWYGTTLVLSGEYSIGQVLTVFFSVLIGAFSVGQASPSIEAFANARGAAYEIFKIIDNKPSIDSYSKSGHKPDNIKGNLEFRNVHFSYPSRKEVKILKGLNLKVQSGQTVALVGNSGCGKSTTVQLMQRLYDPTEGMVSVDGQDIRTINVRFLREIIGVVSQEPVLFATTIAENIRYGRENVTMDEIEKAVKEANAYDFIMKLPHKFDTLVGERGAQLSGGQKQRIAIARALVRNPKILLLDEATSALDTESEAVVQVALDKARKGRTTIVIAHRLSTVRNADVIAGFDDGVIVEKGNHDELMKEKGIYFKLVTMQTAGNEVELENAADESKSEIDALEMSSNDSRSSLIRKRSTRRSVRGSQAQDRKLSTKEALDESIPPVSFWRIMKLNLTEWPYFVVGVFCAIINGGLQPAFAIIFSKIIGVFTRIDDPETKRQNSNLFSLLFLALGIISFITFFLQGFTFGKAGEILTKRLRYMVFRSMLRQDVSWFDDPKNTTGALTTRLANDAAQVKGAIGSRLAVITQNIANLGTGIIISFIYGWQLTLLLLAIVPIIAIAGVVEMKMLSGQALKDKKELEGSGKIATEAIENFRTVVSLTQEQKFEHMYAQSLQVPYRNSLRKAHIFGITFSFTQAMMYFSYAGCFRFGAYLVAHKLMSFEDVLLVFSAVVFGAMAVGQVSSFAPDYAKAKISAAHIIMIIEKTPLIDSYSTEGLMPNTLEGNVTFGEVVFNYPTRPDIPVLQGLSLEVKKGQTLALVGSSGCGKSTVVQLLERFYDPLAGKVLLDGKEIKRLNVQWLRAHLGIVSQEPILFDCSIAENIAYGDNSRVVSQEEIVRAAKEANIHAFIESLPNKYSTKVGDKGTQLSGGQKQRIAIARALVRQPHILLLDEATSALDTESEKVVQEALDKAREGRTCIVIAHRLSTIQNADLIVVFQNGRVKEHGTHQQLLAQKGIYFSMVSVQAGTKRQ
ATP-dependent translocase ABCB1, sequence (P08183 whole entry): as above

inhibition at 10 µM (ABCB1 (P-glycoprotein) [1]): 74%
Activity [2]: substrate [+]
inhibition at 10 µM (ABCB1 (P-glycoprotein) [3]): 80%
Structure (SMILES): O=C(N[C@H](/C=C/S(=O)(=O)c1ccccc1)CCc1ccccc1)[C@H](Cc1ccccc1)NC(=O)N1CCOCC1
